Measurements taken from ChEMBL document CHEMBL1130659, “Macrolide biosynthesis: a single cytochrome P450, PicK, is responsible for the hydroxylations that generate methymycin, neomethymycin, and picromycin in Streptomyces venezuelae” (Bioorg Med Chem Lett, 1998).

What was measured:
Assay type in all cases: ADME
[1] = Michaelis behavior of the enzyme (PicK/6-His)
[2] = Catalytic constant expressed as Kinetic behavior of enzyme (PicK/6-His)
[3] = Kinetic behavior of the enzyme (PicK/6-His) was evaluated
[4] = Ratio of kcat to Km was evaluated.

Row | Km [1] | k cat [2] | Km [3] | kcat/Km [4] | SMILES
1 | 130 µM | 1.1 s⁻¹ | 2200 µM | 8000 M⁻¹ s⁻¹ | CC[C@H]1OC(=O)[C@H](C)[C@@H](O[C@@H]2O[C@H](C)C[C@H](N(C)C)[C@H]2O)[C@@H](C)C[C@@H](C)C(=O)/C=C/[C@H]1C
2 | 88 µM | 2 s⁻¹ | 440 µM | 23000 M⁻¹ s⁻¹ | CC[C@H]1OC(=O)[C@H](C)C(=O)[C@H](C)[C@@H](O[C@@H]2O[C@H](C)C[C@H](N(C)C)[C@H]2O)[C@@H](C)C[C@@H](C)C(=O)/C=C/[C@H]1C
